Tests used:
[1] = test system: NFKB target genes (IRF4, TNF AIP3 and BIRC3); test: PCR of NFKB target genes; format: cell-based
[2] = test system: DOHH2 and SU-DHL-2 DLBCL cell lines; test: miRNA profiling, Agilent Human microRNA microarray; format: cell-based; details: 500 nM vs DMSO, 4 h or 8 h
Method: (§1) Total RNA was extracted from 2 DLBCL cell lines, the germinal center B-cell (GCB) type DOHH2 and from the activated B-cell-like (ABC)-type SU-DHL-2, following treatment with compound (1-1) (500 nM) or DMSO for 4 h or 8 h. RNA samples were labeled with cyanine-3 dye using the Agilent microRNA Complete Labeling System & Hyb Kit and hybridized to the Agilent Human microRNA microarray v.3. Raw expression values were obtained with Agilent Feature Extraction Software, log-transformed and normalized by the quantile method. Data were filtered to exclude relatively invariant features and those below the detection threshold. Limma (Linear Models for Microarray data analysis) was employed using R/Bioconductor and the filtered dataset. Baseline miRNA profiling was obtained in 22 DLBCL cell lines with the Nanostring nCounter Human v2 miRNA Expression Assay kit. Baseline gene expression profiling (GEP) was obtained in the 22 cell lines with the Illumina HumanHT-12 v4 Expression BeadChip. Selected miRNA changes were validated by real-time PCR. The miRWalk database (Dweep et al, 2011) was used to retrieve the validated miRNA targets. Gene Set Enrichment Analysis (GSEA) software was used to assess enrichment of miRNA targets in the GEP datasets.
Total RNA was extracted from 2 diffuse large B-Cell lymphoma (DLBCL) cell lines, the germinal center B-cell (GCB) type DOHH2 and activated B-cell-like (ABC)-type SU-DHL-2, following treatment with 500 nM compound (1-1) or DMSO for 4 h or 8 h. RNA samples were labeled with cyanine-3 dye using the Agilent microRNA Complete Labeling System & Hyb Kit and hybridized to the Agilent Human microRNA microarray v.3. Raw expression values were obtained with Agilent Feature Extraction Software, log-transformed and normalized by the quantile method. Data were filtered to exclude relatively invariant features and those below the detection threshold. Limma was employed using R/Bioconductor and the filtered dataset. […]

lymphoma cell lines = test: Cytotoxic activity (apoptosis) by Annexin V staining; format: cell-based; details: 500 nM, 72 h; 14%
[3] = test system: SU-DHL-6, SU-DHL-2 cell lines; test: Gene expression profiling (GEP), Illumina HumanHT-12; format: cell-based, human; details: 500 nM, 1, 2, 4, 8 or 12 hours
Method: (§2) Cell lines: 22 diffuse large B-cell lymphoma (DLBCL), 4 mantle cell lymphomas, 3 multiple myelomas, 3 splenic marginal zone lymphoma and 1 prolymphocytic leukemia. Antiproliferative activity of compound (1-1) (OncoEthix SA, Switzerland) was assessed by MTT and its cytotoxic activity by Annexin V staining and gene expression profiling (GEP) with Illumina HumanHT-12 Expression BeadChips. Data mining was done with LIMMA, GSEA, Metacore. Synergy was assessed in cells (2-5 cell lines) exposed for 72 h to increasing doses of compound (1-1) alone or in combination with increasing doses of other agents. MTT assays were performed and Chou-Talalay combination index (CI) calculated.
We performed GEP on 2 cell lines (SU-DHL-6, SU-DHL-2), treated with DMSO or compound (1-1) (500 nM) for 1, 2, 4, 8 or 12 hours.

[4] = Oral exposure in the rat (pharmacokinetics); format: in vivo, Sprague Dawley rats; details: rats, 1 mg/kg intravenous
DLBCL cell lines = test: GEP variations of validated miRNA target genes; format: cell-based, human
Method: as §1
Total RNA was extracted from 2 diffuse large B-Cell lymphoma (DLBCL) cell lines, the germinal center B-cell (GCB) type DOHH2 and activated B-cell-like (ABC)-type SU-DHL-2, following treatment with 500 nM compound (1-1) or DMSO for 4 h or 8 h. RNA samples were labeled with cyanine-3 dye using the Agilent microRNA Complete Labeling System & Hyb Kit and hybridized to the Agilent Human microRNA microarray v.3. Raw expression values were obtained with Agilent Feature Extraction Software, log-transformed and normalized by the quantile method. Data were filtered to exclude relatively invariant features and those below the detection threshold. Limma was employed using R/Bioconductor and the filtered dataset. Baseline microRNA (abbreviated miRNA) profiling was obtained from 30 B-cell lymphoma cell lines, including 22 DLBCL with the Nanostring nCounter Human v2 miRNA Expression Assay kit. Baseline gene expression profiling (GEP) was obtained with the Illumina HumanHT-12 v4 Expression BeadChip. Selected miRNA changes were validated by real-time PCR. Validated miRNA targets were retrieved using the miRWalk database (Dweep et al, 2011). […] Changes in these miRNAs matched GEP variations of validated target genes (e.g., miR-92a-1-5p: CDKN1A, log 2 FC, 0.81, CDKN2A, log 2 FC, 0.81; miR-96-5p: MYC, log 2 FC, −0.57, MYD88, log 2 FC, −0.35).

[5] = test system: 22 diffuse large B-cell lymphoma (DLBCL), 4 mantle cell lymphomas, 3 multiple myelomas, 3 splenic marginal zone lymphoma and 1 prolymphocytic leukemia cell …; test: Antiproliferative activity by MTT; format: cell-based; details: 500 nM, 72 h; 88%
Method: as §2, with “[…].” for “Antiproliferative activity of compound (1-1) (OncoEthix SA, Switzerland) was assessed by MTT and its cytotoxic activity by Annexin V staining and gene expression profiling (GEP) with Illumina HumanHT-12 Expression BeadChips.”

[6] = Antiproliferative activity by MTT; format: cell-based; details: B-cell
Method: as §2, with “[…].” for “Antiproliferative activity of compound (1-1) (OncoEthix SA, Switzerland) was assessed by MTT and its cytotoxic activity by Annexin V staining and gene expression profiling (GEP) with Illumina HumanHT-12 Expression BeadChips.”

IL10 and IL4 production = test: IL10 and IL4 production; format: cell-based; details: after 24 hours treatment
ABC cell lines = test: Immunoblotting and immunohistochemistry; format: cell-based

CI/F [4]: 13.4 mL/min/kg
Compound: Cc1sc2c(c1C)C(c1ccc(Cl)cc1)=N[C@@H](CC(=O)Nc1ccc(O)cc1)c1nnc(C)n1-2 [Compound (1-1), 2-[(6S)-4-(4-chlorophenyl)-2,3,9-trimethyl-6H-thienol[3,2-f]-[1,2,4]triazolo[4,3-a][1,4]diazepin-6-yl]-N-(4-hydroxyphenyl)acetamide dihydrate]
expression of NFKB target genes (IRF4, TNF AIP3 and BIRC3) [1]: downregulated
miR-21-3p expression, log 2 FC [2]: −0.37 log 2 FC
miR-92a-1-5p expression, log 2 FC [2]: −2.01 log 2 FC
miR-96-5p expression, log 2 FC [2]: 0.39 log 2 FC
cell lines showing apoptosis (lymphoma cell lines): 3/22
expression of MYC (GEP) [3]: most frequently downregulated gene
expression of MYD88, IRAK1, TLR6, IL6, STAT3, and TNFRSF17 (NFKB, TLR and JAK/STAT pathways) [3]: downregulated
expression of histone genes (GEP) [3]: upregulated
CDKN1A expression (miR-92a-1-5p target), log 2 FC (DLBCL cell lines): 0.81 log 2 FC
CDKN2A expression (miR-92a-1-5p target), log 2 FC (DLBCL cell lines): 0.81 log 2 FC
MYC expression (miR-96-5p target), log 2 FC (DLBCL cell lines): −0.57 log 2 FC
MYD88 expression (miR-96-5p target), log 2 FC (DLBCL cell lines): −0.35 log 2 FC
cell lines showing cytostatic activity [5]: 29/33
IC50 ([6]; cell lines with lower sensitivity (8 of 22 DLBCL cell lines)): > 500 nM
IC50 ([6]; sensitive cell lines (14 of 22 DLBCL cell lines)): < 500 nM
IL10 and IL4 production (IL10 and IL4 production): reduced
transcriptionally active pSTAT3 (ABC cell lines; 2 ABC cell lines): reduction
nuclear localization of p50 (NFKB 1) (ABC cell lines; ABC cell lines): reduction

Source: patent US9968620B2, “Methods of treating lymphoma using thienotriazolodiazepine compounds” (ONCOETHIX GmbH, priority 2014, dated 2018)
